Experimental data from ChEMBL document CHEMBL4507274 (2021).

Tests used:
[1] = biological target: T1, Protein kinase C epsilon type (Homo sapiens) (UniProt Q02156); settings: Compound concentration 100.0 nM
T1 sequence (whole entry): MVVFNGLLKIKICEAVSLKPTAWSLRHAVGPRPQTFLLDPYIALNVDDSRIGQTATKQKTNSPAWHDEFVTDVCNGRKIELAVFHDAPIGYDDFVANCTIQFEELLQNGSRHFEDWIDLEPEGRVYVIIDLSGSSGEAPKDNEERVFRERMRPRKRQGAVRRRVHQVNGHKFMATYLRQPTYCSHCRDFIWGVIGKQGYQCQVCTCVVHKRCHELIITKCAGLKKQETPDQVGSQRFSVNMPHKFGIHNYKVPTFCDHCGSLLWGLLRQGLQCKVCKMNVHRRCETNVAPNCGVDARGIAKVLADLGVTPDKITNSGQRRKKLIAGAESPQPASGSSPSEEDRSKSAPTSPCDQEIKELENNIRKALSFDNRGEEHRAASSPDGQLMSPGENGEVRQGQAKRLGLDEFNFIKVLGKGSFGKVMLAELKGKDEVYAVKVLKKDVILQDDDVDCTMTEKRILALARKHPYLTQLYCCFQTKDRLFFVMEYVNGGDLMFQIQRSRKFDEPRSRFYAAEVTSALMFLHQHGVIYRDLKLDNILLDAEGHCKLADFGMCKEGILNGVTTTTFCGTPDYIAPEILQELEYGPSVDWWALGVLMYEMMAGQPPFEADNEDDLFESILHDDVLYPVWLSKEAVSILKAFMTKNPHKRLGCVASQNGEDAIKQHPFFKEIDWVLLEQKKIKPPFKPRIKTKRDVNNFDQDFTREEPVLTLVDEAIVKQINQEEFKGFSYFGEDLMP

[2] = biological target: Serine/threonine-protein kinase Chk2 (Homo sapiens) (UniProt O96017); settings: Compound concentration 100.0 nM
[3] = biological target: Cyclin-dependent kinase 7 (Homo sapiens) (UniProt P50613); settings: Compound concentration 100.0 nM
[4] = biological target: Testis-specific serine/threonine-protein kinase 3 (Homo sapiens) (UniProt Q96PN8); settings: Compound concentration 100.0 nM
[5] = biological target: Alpha-2B adrenergic receptor (Homo sapiens) (UniProt P18089); settings: Compound concentration 10.0 uM
[6] = biological target: Macrophage-stimulating protein receptor (Homo sapiens) (UniProt Q04912); settings: Compound concentration 100.0 nM
[7] = biological target: Mitogen-activated protein kinase kinase kinase 14 (Homo sapiens) (UniProt Q99558); settings: Compound concentration 100.0 nM
[8] = biological target: Proto-oncogene tyrosine-protein kinase receptor Ret (Homo sapiens) (UniProt P07949); settings: Compound concentration 100.0 nM
[9] = biological target: MAP kinase-activated protein kinase 2 (Homo sapiens) (UniProt P49137); settings: Compound concentration 100.0 nM
[10] = biological target: Homeodomain-interacting protein kinase 2 (Homo sapiens) (UniProt Q9H2X6); settings: Compound concentration 100.0 nM
[11] = biological target: Mitogen-activated protein kinase 8 (Homo sapiens) (UniProt P45983); settings: Compound concentration 100.0 nM
[12] = biological target: Casein kinase I isoform gamma-3 (Homo sapiens) (UniProt Q9Y6M4); settings: Compound concentration 100.0 nM
[13] = biological target: Serine/threonine-protein kinase PAK 1 (Homo sapiens) (UniProt Q13153); settings: Compound concentration 100.0 nM
[14] = biological target: Ribosomal protein S6 kinase alpha-1 (Homo sapiens) (UniProt Q15418); settings: Compound concentration 100.0 nM
[15] = biological target: Serine/threonine-protein kinase 16 (Homo sapiens) (UniProt O75716); settings: Compound concentration 100.0 nM
[16] = biological target: 5-hydroxytryptamine receptor 5A (Homo sapiens) (UniProt P47898); settings: Compound concentration 10.0 uM
[17] = biological target: Phosphatidylinositol 5-phosphate 4-kinase type-2 gamma (Homo sapiens) (UniProt Q8TBX8); settings: Compound concentration 100.0 nM
[18] = biological target: Tyrosine-protein kinase Mer (Homo sapiens) (UniProt Q12866); settings: Compound concentration 100.0 nM
[19] = biological target: Serine/threonine-protein kinase 25 (Homo sapiens) (UniProt O00506); settings: Compound concentration 100.0 nM
[20] = biological target: Dual specificity mitogen-activated protein kinase kinase 5 (Homo sapiens) (UniProt Q13163); settings: Compound concentration 100.0 nM
[21] = biological target: cGMP-dependent protein kinase 2 (Homo sapiens) (UniProt Q13237); settings: Compound concentration 100.0 nM
[22] = biological target: 5'-AMP-activated protein kinase catalytic subunit alpha-2 (Homo sapiens) (UniProt P54646); settings: Compound concentration 100.0 nM
[23] = biological target: Cyclin-dependent kinase-like 5 (Homo sapiens) (UniProt O76039); settings: Compound concentration 100.0 nM
[24] = biological target: Serine/threonine-protein kinase DCLK2 (Homo sapiens) (UniProt Q8N568); settings: Compound concentration 100.0 nM
[25] = biological target: Bone morphogenetic protein receptor type-2 (Homo sapiens) (UniProt Q13873); settings: Compound concentration 100.0 nM
[26] = system: Mast/stem cell growth factor receptor Kit (Homo sapiens), P10721 [V559D,V654A]; settings: Compound concentration 100.0 nM
[27] = biological target: Phosphatidylinositol 3-kinase C2 domain-containing subunit gamma (Homo sapiens) (UniProt O75747); settings: Compound concentration 100.0 nM
[28] = biological target: Cyclin-dependent kinase 4 (Homo sapiens) (UniProt P11802); settings: Compound concentration 100.0 nM
[29] = biological target: Tyrosine-protein kinase Lyn (Homo sapiens) (UniProt P07948); settings: Compound concentration 100.0 nM
[30] = system: Tyrosine-protein kinase ABL1 (Homo sapiens), P00519 [F317I]; settings: Compound concentration 100.0 nM
[31] = biological target: Serine/threonine-protein kinase Nek7 (Homo sapiens) (UniProt Q8TDX7); settings: Compound concentration 100.0 nM
[32] = biological target: Calcium/calmodulin-dependent protein kinase type II subunit gamma (Homo sapiens) (UniProt Q13555); settings: Compound concentration 100.0 nM
[33] = biological target: Hormonally up-regulated neu tumor-associated kinase (Homo sapiens) (UniProt P57058); settings: Compound concentration 100.0 nM
[34] = biological target: Myosin light chain kinase 2, skeletal/cardiac muscle (Homo sapiens) (UniProt Q9H1R3); settings: Compound concentration 100.0 nM
[35] = biological target: STE20/SPS1-related proline-alanine-rich protein kinase (Homo sapiens) (UniProt Q9UEW8); settings: Compound concentration 100.0 nM

Alpha-2B adrenergic receptor (Homo sapiens), sequence (P18089 whole entry): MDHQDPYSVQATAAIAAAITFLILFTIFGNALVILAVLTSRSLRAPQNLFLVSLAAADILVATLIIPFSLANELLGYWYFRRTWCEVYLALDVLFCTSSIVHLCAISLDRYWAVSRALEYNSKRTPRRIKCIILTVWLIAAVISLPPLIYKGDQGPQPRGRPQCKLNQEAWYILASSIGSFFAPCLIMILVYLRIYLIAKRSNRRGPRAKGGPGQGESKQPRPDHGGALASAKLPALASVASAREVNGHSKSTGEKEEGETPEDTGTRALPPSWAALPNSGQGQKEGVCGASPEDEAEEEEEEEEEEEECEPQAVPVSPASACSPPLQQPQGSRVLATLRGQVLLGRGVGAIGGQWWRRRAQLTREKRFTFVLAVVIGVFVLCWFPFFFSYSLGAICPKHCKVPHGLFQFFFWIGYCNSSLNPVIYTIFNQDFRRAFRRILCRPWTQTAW
Serine/threonine-protein kinase 16 (Homo sapiens), sequence (O75716 whole entry): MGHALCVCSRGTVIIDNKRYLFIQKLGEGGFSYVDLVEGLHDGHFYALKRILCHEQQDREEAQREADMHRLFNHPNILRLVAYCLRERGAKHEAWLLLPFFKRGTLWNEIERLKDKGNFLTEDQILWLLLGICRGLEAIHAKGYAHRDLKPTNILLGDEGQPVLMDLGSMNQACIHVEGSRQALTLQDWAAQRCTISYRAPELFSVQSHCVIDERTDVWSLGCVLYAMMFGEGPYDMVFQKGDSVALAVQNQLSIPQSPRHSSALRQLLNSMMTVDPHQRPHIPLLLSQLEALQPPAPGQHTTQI
Phosphatidylinositol 3-kinase C2 domain-containing subunit gamma (Homo sapiens), sequence (O75747 whole entry, the tested form may be a part): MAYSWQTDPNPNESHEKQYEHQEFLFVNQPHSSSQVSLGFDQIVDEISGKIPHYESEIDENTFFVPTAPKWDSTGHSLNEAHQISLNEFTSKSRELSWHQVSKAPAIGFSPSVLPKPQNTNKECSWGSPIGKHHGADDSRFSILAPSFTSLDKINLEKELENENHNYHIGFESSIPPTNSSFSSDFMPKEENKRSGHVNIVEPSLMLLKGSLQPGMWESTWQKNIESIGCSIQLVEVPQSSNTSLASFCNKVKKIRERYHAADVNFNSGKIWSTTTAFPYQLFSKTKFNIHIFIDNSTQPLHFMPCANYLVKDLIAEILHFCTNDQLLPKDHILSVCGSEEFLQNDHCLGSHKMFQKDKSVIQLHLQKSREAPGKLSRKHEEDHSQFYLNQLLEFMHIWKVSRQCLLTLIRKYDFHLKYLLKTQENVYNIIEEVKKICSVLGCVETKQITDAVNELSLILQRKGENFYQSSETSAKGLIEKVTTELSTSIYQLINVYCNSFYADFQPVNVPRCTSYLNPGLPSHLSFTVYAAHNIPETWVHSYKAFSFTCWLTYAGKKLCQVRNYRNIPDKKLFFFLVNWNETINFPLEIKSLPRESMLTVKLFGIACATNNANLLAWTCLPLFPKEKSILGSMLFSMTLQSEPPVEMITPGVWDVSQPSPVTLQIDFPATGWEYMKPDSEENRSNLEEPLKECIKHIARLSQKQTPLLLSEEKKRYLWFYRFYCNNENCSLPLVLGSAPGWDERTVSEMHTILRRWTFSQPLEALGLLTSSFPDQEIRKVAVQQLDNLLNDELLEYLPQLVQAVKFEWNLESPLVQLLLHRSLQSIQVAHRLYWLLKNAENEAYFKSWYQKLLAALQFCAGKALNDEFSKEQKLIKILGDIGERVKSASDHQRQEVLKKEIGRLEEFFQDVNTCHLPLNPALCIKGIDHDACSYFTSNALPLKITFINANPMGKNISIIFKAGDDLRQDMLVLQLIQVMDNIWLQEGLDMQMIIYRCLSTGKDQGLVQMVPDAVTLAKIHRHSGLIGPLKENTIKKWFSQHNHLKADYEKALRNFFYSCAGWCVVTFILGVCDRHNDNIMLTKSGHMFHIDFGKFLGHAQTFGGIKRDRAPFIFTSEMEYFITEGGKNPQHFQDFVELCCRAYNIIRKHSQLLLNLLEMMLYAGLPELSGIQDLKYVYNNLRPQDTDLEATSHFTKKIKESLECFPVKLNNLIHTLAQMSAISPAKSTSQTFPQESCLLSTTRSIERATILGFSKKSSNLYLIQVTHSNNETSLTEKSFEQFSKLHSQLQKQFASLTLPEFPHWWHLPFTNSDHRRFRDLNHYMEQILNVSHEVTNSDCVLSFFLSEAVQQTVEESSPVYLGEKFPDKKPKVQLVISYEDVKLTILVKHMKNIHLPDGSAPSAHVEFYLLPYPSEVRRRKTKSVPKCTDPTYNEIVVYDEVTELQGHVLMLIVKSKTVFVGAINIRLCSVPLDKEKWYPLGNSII
Bone morphogenetic protein receptor type-2 (Homo sapiens), sequence (Q13873 whole entry): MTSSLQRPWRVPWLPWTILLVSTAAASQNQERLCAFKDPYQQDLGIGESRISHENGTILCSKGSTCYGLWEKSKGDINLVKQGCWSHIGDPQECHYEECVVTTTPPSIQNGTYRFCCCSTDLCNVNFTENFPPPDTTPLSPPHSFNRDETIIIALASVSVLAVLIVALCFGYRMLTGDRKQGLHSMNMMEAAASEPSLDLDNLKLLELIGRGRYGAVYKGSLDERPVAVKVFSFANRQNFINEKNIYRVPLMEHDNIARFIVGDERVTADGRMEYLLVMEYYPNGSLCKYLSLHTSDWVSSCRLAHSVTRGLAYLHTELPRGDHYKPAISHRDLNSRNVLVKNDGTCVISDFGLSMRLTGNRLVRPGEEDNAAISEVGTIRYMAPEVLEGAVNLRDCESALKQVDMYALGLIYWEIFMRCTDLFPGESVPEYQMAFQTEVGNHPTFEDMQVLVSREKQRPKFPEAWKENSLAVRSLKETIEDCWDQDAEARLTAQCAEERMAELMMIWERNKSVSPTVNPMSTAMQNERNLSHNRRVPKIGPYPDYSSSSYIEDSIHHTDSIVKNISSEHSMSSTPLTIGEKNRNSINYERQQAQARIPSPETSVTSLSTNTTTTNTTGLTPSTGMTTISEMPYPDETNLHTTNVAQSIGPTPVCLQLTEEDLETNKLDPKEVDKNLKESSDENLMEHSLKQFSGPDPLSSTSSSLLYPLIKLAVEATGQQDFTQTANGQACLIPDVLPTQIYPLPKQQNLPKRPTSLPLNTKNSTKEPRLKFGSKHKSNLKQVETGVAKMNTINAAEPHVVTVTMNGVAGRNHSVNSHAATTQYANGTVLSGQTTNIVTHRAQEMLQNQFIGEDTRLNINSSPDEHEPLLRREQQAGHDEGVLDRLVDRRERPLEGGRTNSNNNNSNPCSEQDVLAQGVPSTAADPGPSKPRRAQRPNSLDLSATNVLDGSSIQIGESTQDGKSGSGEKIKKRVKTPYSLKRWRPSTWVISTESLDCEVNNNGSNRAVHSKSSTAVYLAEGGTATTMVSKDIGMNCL
Tyrosine-protein kinase Mer (Homo sapiens), sequence (Q12866 whole entry): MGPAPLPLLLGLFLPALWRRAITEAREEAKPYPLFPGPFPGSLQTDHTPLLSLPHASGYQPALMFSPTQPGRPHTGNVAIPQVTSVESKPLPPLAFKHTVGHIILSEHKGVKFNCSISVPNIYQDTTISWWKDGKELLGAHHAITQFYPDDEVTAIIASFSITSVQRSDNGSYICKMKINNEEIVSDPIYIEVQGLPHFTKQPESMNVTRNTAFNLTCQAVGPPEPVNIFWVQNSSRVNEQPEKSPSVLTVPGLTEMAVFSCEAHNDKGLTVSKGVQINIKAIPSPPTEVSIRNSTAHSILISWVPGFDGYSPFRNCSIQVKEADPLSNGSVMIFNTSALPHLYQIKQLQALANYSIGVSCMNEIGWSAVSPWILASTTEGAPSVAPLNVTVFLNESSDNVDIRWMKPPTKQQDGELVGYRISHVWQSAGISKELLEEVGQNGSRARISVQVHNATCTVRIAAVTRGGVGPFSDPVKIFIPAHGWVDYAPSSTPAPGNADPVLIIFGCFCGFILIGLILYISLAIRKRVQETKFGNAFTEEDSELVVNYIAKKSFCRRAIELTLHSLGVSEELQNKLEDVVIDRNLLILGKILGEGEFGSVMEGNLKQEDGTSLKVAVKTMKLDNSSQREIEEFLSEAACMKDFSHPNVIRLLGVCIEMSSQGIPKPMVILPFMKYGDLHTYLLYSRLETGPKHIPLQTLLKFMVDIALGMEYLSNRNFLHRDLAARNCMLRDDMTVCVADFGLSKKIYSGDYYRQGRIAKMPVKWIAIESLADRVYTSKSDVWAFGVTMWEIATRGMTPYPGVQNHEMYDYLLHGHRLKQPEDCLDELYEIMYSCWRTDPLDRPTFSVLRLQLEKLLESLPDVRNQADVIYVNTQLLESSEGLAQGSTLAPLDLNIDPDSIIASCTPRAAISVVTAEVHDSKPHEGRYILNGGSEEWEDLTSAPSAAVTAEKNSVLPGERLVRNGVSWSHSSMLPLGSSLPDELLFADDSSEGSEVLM
Cyclin-dependent kinase 7 (Homo sapiens), sequence (P50613 whole entry): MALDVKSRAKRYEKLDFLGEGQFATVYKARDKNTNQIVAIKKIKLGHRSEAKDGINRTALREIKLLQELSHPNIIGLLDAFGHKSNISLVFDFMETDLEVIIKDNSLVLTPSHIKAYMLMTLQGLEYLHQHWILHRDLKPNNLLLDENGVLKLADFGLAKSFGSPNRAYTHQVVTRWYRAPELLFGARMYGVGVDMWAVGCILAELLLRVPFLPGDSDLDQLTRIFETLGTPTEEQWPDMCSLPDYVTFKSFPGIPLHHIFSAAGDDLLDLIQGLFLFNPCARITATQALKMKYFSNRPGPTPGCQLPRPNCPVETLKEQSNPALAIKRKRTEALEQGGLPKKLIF
5-hydroxytryptamine receptor 5A (Homo sapiens), sequence (P47898 whole entry): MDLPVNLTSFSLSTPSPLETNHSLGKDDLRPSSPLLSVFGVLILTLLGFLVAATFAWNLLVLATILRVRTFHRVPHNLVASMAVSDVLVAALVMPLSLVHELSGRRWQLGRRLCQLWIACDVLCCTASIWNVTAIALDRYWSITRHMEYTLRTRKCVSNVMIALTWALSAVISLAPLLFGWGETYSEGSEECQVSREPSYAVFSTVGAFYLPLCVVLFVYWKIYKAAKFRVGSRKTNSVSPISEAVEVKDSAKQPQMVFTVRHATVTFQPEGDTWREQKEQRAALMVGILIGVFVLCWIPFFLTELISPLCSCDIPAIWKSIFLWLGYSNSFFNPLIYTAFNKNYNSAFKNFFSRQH

Cc1c[nH]c2nccc(Oc3c(F)cc(Nc4cc(Cl)nc(N)n4)cc3F)c12 [BAY-549]
inactive: residual activity [1] 96% | residual activity [2] 89% | residual activity [3] 91% | residual activity [4] 100% | inhibition [5] 11.7% | residual activity [6] 74% | residual activity [7] 92% | residual activity [8] 97% | residual activity [9] 100% | residual activity [10] 90% | residual activity [11] 80% | residual activity [12] 100% | residual activity [13] 100% | residual activity [14] 91% | residual activity [15] 87% | inhibition [16] -9.86% | residual activity [17] 100% | residual activity [18] 100% | residual activity [19] 100% | residual activity [20] 82% | residual activity [21] 90% | residual activity [22] 89% | residual activity [23] 73% | residual activity [24] 100% | residual activity [25] 95% | residual activity [26] 94% | residual activity [27] 100% | residual activity [28] 100% | residual activity [29] 81% | residual activity [30] 100% | residual activity [31] 100% | residual activity [32] 96% | residual activity [33] 100% | residual activity [34] 98% | residual activity [35] 94%

Cn1cc(Cl)c2c(Oc3c(F)cc(Nc4cc(Cl)nc(N)n4)cc3F)ccnc21 [BAY-4900]
inactive: residual activity [1] 91% | residual activity [2] 94% | residual activity [3] 100% | residual activity [4] 100% | inhibition [5] -4.05% | residual activity [6] 87% | residual activity [7] 100% | residual activity [8] 99% | residual activity [9] 100% | residual activity [10] 100% | residual activity [11] 76% | residual activity [12] 100% | residual activity [13] 100% | residual activity [14] 86% | residual activity [15] 100% | inhibition [16] 0.35% | residual activity [17] 96% | residual activity [18] 90% | residual activity [19] 100% | residual activity [20] 100% | residual activity [21] 83% | residual activity [22] 97% | residual activity [23] 78% | residual activity [24] 100% | residual activity [25] 100% | residual activity [26] 90% | residual activity [27] 100% | residual activity [28] 100% | residual activity [29] 99% | residual activity [30] 93% | residual activity [31] 100% | residual activity [32] 100% | residual activity [33] 100% | residual activity [34] 99% | residual activity [35] 100%
